From ChEMBL document CHEMBL1201862, “PubChem BioAssay data set” (2004) come the findings set out here.

Assay in all cases: DTP human tumour cell line panel, 48 h
Assay [1] concerns A498.
The subject of assay [2] is A549.
For assay [3], the system named is ACHN.
The subject of assay [4] is CAKI-1.
For assay [5], the system named is EKVX.
Assay [6] deals with HCC 2998.
Assay [7] deals with HCT-15.
For assay [8], the system named is Hs-578T.
The subject of assay [9] is MDA-N.
For assay [10], the system named is MOLT-4.
Assay [11] concerns NCI-H23.
Assay [12] deals with NCI-H460.
For assay [13], the system named is NCI/ADR-RES.
The test system of assay [14] is OVCAR-5.
Assay [15] deals with PC-3.
The test system of assay [16] is SF-539.
Assay [17] relates to SW-620.
For assay [18], the system named is U-251.
Assay [19] has as its system UACC-257.
The subject of assay [20] is UO-31.

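96-well plates; 48 h exposure; 5 concentrations. Endpoints by linear interpolation between flanking doses. Not reached: highest tested concentration assigned. Abbreviation: GI50, concentration required for 50% inhibition of growth.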 Active and inactive are the calls of the source. No stated cut-off is given here; in the data, active = GI50 up to about 1.1 µM and inactive = higher.

Consider `COC(=O)NC(Cc1ccccc1)NC(C)=O` (configuration not stated), for which the GI50 in assay [1], in assay [2], in assay [3], in [4], in [5] and in assay [6] was > 100 µM (inactive) throughout. Moreover, the GI50 (commonly the concentration giving 50% growth inhibition) in assay [7] was over 100 µM; in [8], 5.3 µM (inactive); in assay [9] it was > 100 µM (inactive); in assay [10], > 100 µM (inactive); in assay [11] it was > 100 µM (inactive); in assay [12] it was > 100 µM (inactive). Further, the GI50 in assay [13], in assay [14], in assay [15], in [16], in assay [17] and in assay [18] was > 100 µM (inactive) in each case. Also, the GI50 in [19] and in assay [20] was > 100 µM (inactive) in each case.
For `COc1ccc2cc(C(=O)NCCc3ccccc3)ccc2c1OC`, the GI50 in assay [1] is 37.5 µM (inactive); in assay [2], > 100 µM (inactive); in assay [3], > 100 µM (inactive); in [4], > 100 µM (inactive); in [5], > 100 µM (inactive); in [6], 34.8 µM (inactive). For the same molecule, the GI50 was over 100 µM in assay [7]; 56.4 µM (inactive) in assay [8]; > 100 µM (inactive) in assay [9]; > 100 µM (inactive) in assay [10]; > 100 µM (inactive) in assay [11]; > 100 µM (inactive) in assay [12]. Also, the GI50 in assay [13] was 84.3 µM (inactive); in assay [14] it was > 100 µM (inactive); in assay [15] it was 91.2 µM (inactive); in assay [16] it was 32.2 µM (inactive); in assay [17] it was > 100 µM (inactive); in assay [18], 33 µM (inactive). For the same molecule, the GI50 in assay [19] was > 100 µM (inactive).
As for `C#CCOC(=O)c1ccc(OC(C)=O)cc1`, the GI50 in assay [1] was > 100 µM (inactive); in [3], > 100 µM (inactive); in [4], > 100 µM (inactive); in assay [5], > 100 µM (inactive); in [6] it was > 100 µM (inactive); in assay [7], over 100 µM. Also, the GI50 in [8], in [9], in assay [10], in assay [11], in [12] and in [13] was > 100 µM (inactive) in each case. The GI50 in assay [14], in assay [15], in assay [16], in assay [17], in assay [18] and in assay [19] was > 100 µM (inactive) throughout. Moreover, the GI50 in assay [20] was > 100 µM (inactive).
On to `COc1ccc2nc3cc(Cl)ccc3c(NCCCN3CCN(CCCNc4ccc5nnn6c7ccccc7c(=O)c4c56)CC3)c2c1`, for which the GI50 in [1] is > 25 µM (inactive); in assay [2] it was 0.172 µM (active); in assay [4] it was > 5.62 µM (inactive); in assay [5], > 17 µM (inactive); in assay [6] it was 0.303 µM (active); in [7], 0.179 µM. The GI50 in assay [8] was > 25 µM (inactive); in assay [9], 1.65 µM (inactive); in assay [10] it was 0.0743 µM (active); in [11] it was 19.5 µM (inactive); in [12], 0.0995 µM (active); in [13], 4.89 µM (inactive). For the same molecule, the GI50 in assay [14] is > 21.2 µM (inactive); in assay [15], > 6.01 µM (inactive); in assay [16], 0.21 µM (active); in assay [17], 0.0458 µM (active); in assay [18], 1.32 µM (inactive); in [19], 2.51 µM (inactive). Besides, the GI50 in assay [20] is > 7.5 µM (inactive).
